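Tested at 5 concentrations; 48 h exposure; 96-well plates; endpoints linearly interpolated, else capped at highest concentration. At the GI50, growth is halved.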 Activity calls are given as the source filed them. Rule as the data show it: active = GI50 up to about 1.1 µM and inactive = higher.

Data on eleven molecules can be found in ChEMBL document CHEMBL1201862, “PubChem BioAssay data set” (2004).

Common to all, as to test: NCI tumour cell line growth inhibition, 48 h
The test system of assay [1] is 786-0.
The subject of assay [2] is A498.
For assay [3], the system named is CAKI-1.
Assay [4] has as its system COLO 205.
Assay [5] deals with DU-145.
For assay [6], the system named is EKVX.
The test system of assay [7] is HCT-116.
The test system of assay [8] is HCT-15.
Assay [9] deals with IGROV-1.
Assay [10] deals with LOX IMVI.
Assay [11] concerns MCF7.
Assay [12] concerns MDA-N.
Assay [13] concerns OVCAR-4.
Assay [14] concerns SN12C.
The subject of assay [15] is SNB-19.
Assay [16] deals with SR.
In assay [17] the test system is T47D.
Assay [18] deals with UACC-257.
Assay [19] has as its system UO-31.
Assay [20] deals with CCRF-CEM.

In the case of `NS(=O)(=O)c1ccc(/N=N/c2ncccc2O)cc1`, the GI50 was 53.1 µM (inactive) in assay [1]; > 100 µM (inactive) in assay [2]; > 100 µM (inactive) in assay [3]; > 100 µM (inactive) in [4]; 38.5 µM (inactive) in assay [5]; > 100 µM (inactive) in [6]. In addition, the GI50 was 39.3 µM (inactive) in [7]; over 100 µM in [8]; > 100 µM (inactive) in [9]; 77.4 µM (inactive) in assay [10]; 57.9 µM (inactive) in assay [11]; > 100 µM (inactive) in [12]. The GI50 in assay [13] is 57.7 µM (inactive); in [14], 71.8 µM (inactive); in [15], > 100 µM (inactive); in [16], 23.1 µM (inactive); in assay [17], > 100 µM (inactive); in [18] it was > 100 µM (inactive). Also, in assay [19], the GI50 was > 100 µM (inactive).
As to `COc1ccc2nc(-c3ccccc3)cc(OCC(=O)O)c2c1`, the GI50 in assay [1], in assay [2], in assay [3], in assay [20], in assay [4] and in assay [5] was > 100 µM (inactive) each time. Besides, the GI50 in assay [6] was > 100 µM (inactive); in [7] it was > 100 µM (inactive); in [8] it was over 100 µM; in assay [9], > 100 µM (inactive); in assay [10], > 100 µM (inactive); in [11], > 100 µM (inactive). In addition, the GI50 in assay [12], in assay [14], in assay [15], in assay [16], in assay [17] and in assay [18] was > 100 µM (inactive) in each case. The GI50 in assay [19] is 25.4 µM (inactive).
As for `C=C(C)C1CCC2=CC(CC3(C)OC3C3=CC(C(=O)OC)=C(C1)O3)OC2=O` (configuration not stated), the GI50 in [1] was > 100 µM (inactive); in assay [2] it was > 100 µM (inactive); in assay [3] it was > 100 µM (inactive); in assay [20] it was 83.2 µM (inactive); in assay [5], > 100 µM (inactive); in assay [6], > 100 µM (inactive). For the same molecule, the GI50 is > 100 µM (inactive) in assay [7]; over 100 µM in assay [8]; > 100 µM (inactive) in [9]; > 100 µM (inactive) in [10]; > 100 µM (inactive) in [11]; > 100 µM (inactive) in assay [12]. Further, the GI50 in assay [14] was > 100 µM (inactive); in assay [15] it was > 100 µM (inactive); in assay [16] it was 83.2 µM (inactive); in [17], 32.9 µM (inactive); in [18], > 100 µM (inactive); in [19], > 100 µM (inactive).
On to `COc1cc(C2c3cc4c(cc3C(O)C3CCC(=O)N23)OCO4)cc(OC)c1OC` (configuration not stated), for which the GI50 in [1] was 52.5 µM (inactive); in assay [2] it was 42.6 µM (inactive); in assay [3], 28.2 µM (inactive); in [20], 29.9 µM (inactive); in assay [4], 37 µM (inactive); in assay [5], 51.8 µM (inactive). Further, the GI50 in assay [6] is > 100 µM (inactive); in [7], 24.3 µM (inactive); in assay [8] it was 31 µM; in assay [9], 39.5 µM (inactive); in assay [10], 52.4 µM (inactive); in [11] it was 16.5 µM (inactive). The GI50 was 5.56 µM (inactive) in [12]; 58.7 µM (inactive) in assay [14]; 29.9 µM (inactive) in assay [15]; 39.9 µM (inactive) in [16]; > 100 µM (inactive) in assay [17]; > 100 µM (inactive) in [18]. In addition, the GI50 in [19] is 15.7 µM (inactive).
In the case of `COc1cc(C2OC(N)=C(C#N)C3=C2C(C)CCC3)cc(OC)c1OC` (configuration not stated), the GI50 was 42.6 µM (inactive) in assay [1]; > 100 µM (inactive) in assay [3]; > 100 µM (inactive) in assay [20]; > 100 µM (inactive) in assay [4]; 95.9 µM (inactive) in assay [5]; 37.2 µM (inactive) in [6]. Besides, the GI50 in [7] was > 100 µM (inactive); in assay [8], over 100 µM; in [9], 47.1 µM (inactive); in assay [10], > 100 µM (inactive); in assay [11], > 100 µM (inactive); in assay [12], > 100 µM (inactive). Also, the GI50 in assay [14] is > 100 µM (inactive); in assay [15], 72.3 µM (inactive); in assay [16] it was 0.136 µM (active); in [17], 2.03 µM (inactive); in assay [18], > 100 µM (inactive); in [19] it was > 100 µM (inactive).
Consider `CN/C(=N\c1ccc(OC)c2ccccc12)SC`, for which the GI50 in [1], in assay [3], in assay [20], in assay [4], in [5] and in [7] was > 10 µM (inactive) throughout. In addition, the GI50 is over 10 µM in assay [8]; > 10 µM (inactive) in assay [9]; > 10 µM (inactive) in assay [10]; > 10 µM (inactive) in [11]; > 10 µM (inactive) in [12]; > 10 µM (inactive) in assay [13]. Besides, the GI50 in assay [14], in assay [15], in assay [16], in assay [17] and in assay [18] was > 10 µM (inactive) throughout.
With `COc1ccc2c(c1)SC1=Nc3sc4cc(OC)ccc4[n+]3CN12`, the GI50 was 29.9 µM (inactive) in [1]; 32.9 µM (inactive) in assay [3]; 20.3 µM (inactive) in assay [20]; 2.96 µM (inactive) in assay [4]; 29 µM (inactive) in [5]; 26.4 µM (inactive) in [6]. In addition, the GI50 in [7] was 41 µM (inactive); in assay [8], 86.1 µM; in assay [9], 24.9 µM (inactive); in assay [11], 5.25 µM (inactive); in [12] it was 26.1 µM (inactive); in assay [14] it was 25.5 µM (inactive). Further, the GI50 is 54.3 µM (inactive) in [15]; 5.83 µM (inactive) in assay [16]; 4.99 µM (inactive) in assay [17]; 30.4 µM (inactive) in assay [18]; 53 µM (inactive) in assay [19].
Consider `CCOC(=O)c1ccc(NC(NC(=O)CC)(C(F)(F)F)C(F)(F)F)cc1`, for which the GI50 in [1], in assay [2], in assay [3], in [20], in assay [4] and in [5] was > 100 µM (inactive) throughout. The GI50 is > 100 µM (inactive) in assay [6]; > 100 µM (inactive) in assay [7]; 97.1 µM in assay [8]; > 100 µM (inactive) in assay [9]; 96.2 µM (inactive) in assay [10]; > 100 µM (inactive) in [11]. In addition, the GI50 was > 100 µM (inactive) in [12]; > 100 µM (inactive) in assay [15]; 14.1 µM (inactive) in assay [16]; > 100 µM (inactive) in [17]; > 100 µM (inactive) in assay [18]; 36.2 µM (inactive) in assay [19].
Consider `CCOC(=O)c1c(O)cc(=O)[nH]c1N1CCOCC1`, for which the GI50 in assay [1], in assay [2], in [3], in [20], in assay [4] and in assay [5] was > 100 µM (inactive) throughout. Moreover, the GI50 in assay [6] was > 100 µM (inactive); in assay [7], > 100 µM (inactive); in [8], over 100 µM; in assay [9] it was > 100 µM (inactive); in [10], > 100 µM (inactive); in assay [11], > 100 µM (inactive). For the same molecule, the GI50 in assay [12], in assay [14], in assay [15], in assay [16], in assay [17] and in [18] was > 100 µM (inactive) throughout. For the same molecule, in [19], the GI50 is > 100 µM (inactive).
Turning to `COc1cccc(C(NC2=NCCC=N2)c2cc3c(cc2O)OCO3)c1O` (configuration not stated), the GI50 in assay [1] was 12.4 µM (inactive); in [2], 27.7 µM (inactive); in assay [3], 49.1 µM (inactive); in assay [20], 10.8 µM (inactive); in assay [4], 40.1 µM (inactive); in assay [5] it was > 100 µM (inactive). The GI50 in assay [6] is > 100 µM (inactive); in assay [7], 24.1 µM (inactive); in [8], 14.1 µM; in [9], 29.4 µM (inactive); in assay [10] it was 19.5 µM (inactive); in assay [11], 18 µM (inactive). Moreover, the GI50 in [12] is 27.2 µM (inactive); in assay [14], 19.6 µM (inactive); in assay [15], 46.1 µM (inactive); in [16], 11.6 µM (inactive); in assay [17], 25.5 µM (inactive); in assay [18], 34.4 µM (inactive). Further, the GI50 in assay [19] is 35.6 µM (inactive).
Turning to `C#CCN(Cc1ccc2[nH]c(N)nc(=O)c2c1)c1ccc(C(=O)NC(CCC(=O)O)C(=O)O)cc1` (configuration not stated), the GI50 was 6.38 µM (inactive) in [1]; 15.7 µM (inactive) in assay [2]; 5.3 µM (inactive) in assay [3]; 6.5 µM (inactive) in assay [20]; 12 µM (inactive) in [4]; 5.94 µM (inactive) in assay [5]. In addition, the GI50 in assay [6] is > 100 µM (inactive); in assay [7], > 100 µM (inactive); in assay [8] it was over 100 µM; in assay [9], 62.1 µM (inactive); in [10] it was 3.24 µM (inactive); in [11], 5.13 µM (inactive). The GI50 in assay [12] was > 100 µM (inactive); in [14], 6.71 µM (inactive); in assay [15], 40.4 µM (inactive); in [16], > 100 µM (inactive); in assay [17], 9.35 µM (inactive); in assay [18], > 100 µM (inactive). Also, the GI50 in [19] was 5.66 µM (inactive).
